Measurements reported in ChEMBL document CHEMBL3872249, “Computer design, synthesis, and bioactivity analyses of drugs like fingolimod used in the treatment of multiple sclerosis” (Bioorg Med Chem, 2017).

Assays:
Assay type in all cases: functional
[1] = system: SK-N-SH; experiment: Effect on VEGFA mRNA expression in human SK-N-SH cells at EC10 by qPCR method relative to beta-actin
[2] = system: SK-N-SH; experiment: Effect on FGF2 mRNA expression in human SK-N-SH cells at EC10 by qPCR method relative to beta-actin
[3] = system: SK-N-SH; experiment: Effect on S1PR1 mRNA expression in human SK-N-SH cells at EC10 by qPCR method relative to beta-actin
[4] = system: SK-N-SH; experiment: Effect on CFLAR mRNA expression in human SK-N-SH cells at EC10 by qPCR method relative to beta-actin
[5] = system: SH-SY5Y; experiment: Effect on ADRB2 mRNA expression in human SH-SY5Y cells at EC10 by qPCR method relative to beta-actin
[6] = system: SH-SY5Y; experiment: Effect on PIK3CG mRNA expression in human SH-SY5Y cells at EC10 by qPCR method relative to beta-actin
[7] = system: SH-SY5Y; experiment: Effect on NOS2 mRNA expression in human SH-SY5Y cells at EC10 by qPCR method relative to beta-actin
[8] = system: SK-N-SH; experiment: Effect on JUN mRNA expression in human SK-N-SH cells at EC10 by qPCR method relative to beta-actin
[9] = system: U-118-MG; experiment: Effect on IL1B mRNA expression in human U118MG cells at EC10 by qPCR method relative to beta-actin
[10] = system: SH-SY5Y; experiment: Effect on MYC mRNA expression in human SH-SY5Y cells at EC10 by qPCR method relative to beta-actin
[11] = system: SH-SY5Y; experiment: Effect on BCL2 mRNA expression in human SH-SY5Y cells at EC10 by qPCR method relative to beta-actin
[12] = system: SK-N-SH; experiment: Effect on NFKB1 mRNA expression in human SK-N-SH cells at EC10 by qPCR method relative to beta-actin
[13] = system: U-118-MG; experiment: Effect on S1PR1 mRNA expression in human U118MG cells at EC10 by qPCR method relative to beta-actin
[14] = system: SK-N-SH; experiment: Effect on IL10 mRNA expression in human SK-N-SH cells at EC10 by qPCR method relative to beta-actin
[15] = system: SH-SY5Y; experiment: Effect on AKT1 mRNA expression in human SH-SY5Y cells at EC10 by qPCR method relative to beta-actin
[16] = system: SH-SY5Y; experiment: Effect on MAG mRNA expression in human SH-SY5Y cells at EC10 by qPCR method relative to beta-actin
[17] = system: SH-SY5Y; experiment: Effect on OPRD1 mRNA expression in human SH-SY5Y cells at EC10 by qPCR method relative to beta-actin
[18] = system: SK-N-SH; experiment: Effect on MMP9 mRNA expression in human SK-N-SH cells at EC10 by qPCR method relative to beta-actin
[19] = system: U-118-MG; experiment: Effect on BCL2 mRNA expression in human U118MG cells at EC10 by qPCR method relative to beta-actin
[20] = system: SK-N-SH; experiment: Effect on TNF mRNA expression in human SK-N-SH cells at EC10 by qPCR method relative to beta-actin
[21] = system: SK-N-SH; experiment: Effect on MAG mRNA expression in human SK-N-SH cells at EC10 by qPCR method relative to beta-actin
[22] = system: SK-N-SH; experiment: Effect on TSHR mRNA expression in human SK-N-SH cells at EC10 by qPCR method relative to beta-actin
[23] = system: U-118-MG; experiment: Effect on JUN mRNA expression in human U118MG cells at EC10 by qPCR method relative to beta-actin
[24] = system: U-118-MG; experiment: Effect on MAG mRNA expression in human U118MG cells at EC10 by qPCR method relative to beta-actin
[25] = system: SK-N-SH; experiment: Effect on FASLG mRNA expression in human SK-N-SH cells at EC10 by qPCR method relative to beta-actin
[26] = system: SK-N-SH; experiment: Effect on EDNRA mRNA expression in human SK-N-SH cells at EC10 by qPCR method relative to beta-actin
[27] = system: SH-SY5Y; experiment: Effect on IL1B mRNA expression in human SH-SY5Y cells at EC10 by qPCR method relative to beta-actin
[28] = system: SK-N-SH; experiment: Effect on AKT1 mRNA expression in human SK-N-SH cells at EC10 by qPCR method relative to beta-actin
[29] = system: U-118-MG; experiment: Effect on AGTR2 mRNA expression in human U118MG cells at EC10 by qPCR method relative to beta-actin
[30] = system: U-118-MG; experiment: Effect on CFLAR mRNA expression in human U118MG cells at EC10 by qPCR method relative to beta-actin
[31] = system: SH-SY5Y; experiment: Effect on EDNRA mRNA expression in human SH-SY5Y cells at EC10 by qPCR method relative to beta-actin
[32] = system: U-118-MG; experiment: Effect on FGF2 mRNA expression in human U118MG cells at EC10 by qPCR method relative to beta-actin
[33] = system: SH-SY5Y; experiment: Effect on CFLAR mRNA expression in human SH-SY5Y cells at EC10 by qPCR method relative to beta-actin
[34] = system: SK-N-SH; experiment: Effect on VCAM1 mRNA expression in human SK-N-SH cells at EC10 by qPCR method relative to beta-actin
[35] = system: U-118-MG; experiment: Effect on DRD2 mRNA expression in human U118MG cells at EC10 by qPCR method relative to beta-actin
[36] = system: U-118-MG; experiment: Effect on NOS2 mRNA expression in human U118MG cells at EC10 by qPCR method relative to beta-actin
[37] = system: SK-N-SH; experiment: Effect on IFNG mRNA expression in human SK-N-SH cells at EC10 by qPCR method relative to beta-actin
[38] = system: U-118-MG; experiment: Effect on PIK3CG mRNA expression in human U118MG cells at EC10 by qPCR method relative to beta-actin
[39] = system: SK-N-SH; experiment: Effect on CYP19A1 mRNA expression in human SK-N-SH cells at EC10 by qPCR method relative to beta-actin
[40] = system: SK-N-SH; experiment: Effect on CSF1 mRNA expression in human SK-N-SH cells at EC10 by qPCR method relative to beta-actin
[41] = system: SK-N-SH; experiment: Effect on MYC mRNA expression in human SK-N-SH cells at EC10 by qPCR method relative to beta-actin
[42] = system: SH-SY5Y; experiment: Effect on S1PR3 mRNA expression in human SH-SY5Y cells at EC10 by qPCR method relative to beta-actin
[43] = system: U-118-MG; experiment: Effect on IL2 mRNA expression in human U118MG cells at EC10 by qPCR method relative to beta-actin
[44] = system: U-118-MG; experiment: Effect on CXCL11 mRNA expression in human U118MG cells at EC10 by qPCR method relative to beta-actin

CCCCCCCCc1ccc(CCC(N)(CO)CO)cc1 [FINGOLIMOD]
fold change (FC) [1]: -7.7644 | fold change (FC) [2]: -7.3456 | fold change (FC) [3]: -5.8741 | fold change (FC) [4]: -11.0378 | fold change (FC) [5]: -11.1967 | fold change (FC) [6]: -5.6081 | fold change (FC) [7]: -3.9518 | fold change (FC) [8]: -2.7499 | fold change (FC) [9]: -4.3432 | fold change (FC) [10]: -4.508 | fold change (FC) [11]: -4.2945 | fold change (FC) [12]: -3.6601 | fold change (FC) [13]: -4.1044 | fold change (FC) [14]: -4.2704 | fold change (FC) [15]: -9.4316 | fold change (FC) [16]: 4.3772 | fold change (FC) [17]: 5.0193 | fold change (FC) [18]: -13.1489 | fold change (FC) [19]: -4.7035 | fold change (FC) [20]: -15.2356 | fold change (FC) [21]: 3.5508 | fold change (FC) [22]: -4.4134 | fold change (FC) [23]: -3.0183 | fold change (FC) [24]: 4.0174 | fold change (FC) [25]: -3.5415 | fold change (FC) [26]: 7.6112 | fold change (FC) [27]: -4.7158 | fold change (FC) [28]: -12.2684 | fold change (FC) [29]: 4.8347 | fold change (FC) [30]: -3.53 | fold change (FC) [31]: 6.8804 | fold change (FC) [32]: -4.2052 | fold change (FC) [33]: -13.7609 | fold change (FC) [34]: -7.0341 | fold change (FC) [35]: -2.6579 | fold change (FC) [36]: -5.6458 | fold change (FC) [37]: -6.428 | fold change (FC) [38]: -3.7491 | fold change (FC) [39]: -7.2069 | fold change (FC) [40]: -7.7644 | fold change (FC) [41]: -8.3361

CCCCCCCCn1nnnc1CCC(N)(CO)CO.Cl
fold change (FC) [1]: -7.9138 | fold change (FC) [2]: -6.7243 | fold change (FC) [3]: -4.3001 | fold change (FC) [4]: -3.3101 | fold change (FC) [5]: -4.5291 | fold change (FC) [6]: -3.5167 | fold change (FC) [7]: -4.7071 | fold change (FC) [8]: -7.2696 | fold change (FC) [9]: -3.0275 | fold change (FC) [10]: -5.0669 | fold change (FC) [11]: -4.8227 | fold change (FC) [12]: -6.9253 | fold change (FC) [13]: -4.1312 | fold change (FC) [14]: -7.7375 | fold change (FC) [15]: -4.1766 | fold change (FC) [17]: 2.8007 | fold change (FC) [18]: -5.1049 | fold change (FC) [19]: -4.6127 | fold change (FC) [20]: -7.8456 | fold change (FC) [42]: -2.5755 | fold change (FC) [22]: 5.2621 | fold change (FC) [23]: -5.0916 | fold change (FC) [43]: -4.2107 | fold change (FC) [25]: -2.9626 | fold change (FC) [26]: 7.0402 | fold change (FC) [27]: -6.5966 | fold change (FC) [28]: -5.3124 | fold change (FC) [29]: 4.8726 | fold change (FC) [44]: -2.9665 | fold change (FC) [30]: -2.9826 | fold change (FC) [31]: 3.6859 | fold change (FC) [32]: -4.6964 | fold change (FC) [33]: -3.1434 | fold change (FC) [34]: -5.4618 | fold change (FC) [35]: -2.5398 | fold change (FC) [36]: -4.0673 | fold change (FC) [37]: -3.6601 | fold change (FC) [38]: -4.5938 | fold change (FC) [39]: -5.5959 | fold change (FC) [40]: -3.004 | fold change (FC) [41]: -4.315

CCCCCCCCn1nnnc1-c1ccc(C(O)CC(N)(CO)CO)cc1.Cl (stereo not drawn)
fold change (FC) [3]: -4.2281 | fold change (FC) [12]: -3.6999 | fold change (FC) [13]: -3.8312 | fold change (FC) [14]: -4.6028 | fold change (FC) [16]: 2.631 | fold change (FC) [20]: -4.9674 | fold change (FC) [42]: -3.7208 | fold change (FC) [21]: 3.9862 | fold change (FC) [24]: 3.7859 | fold change (FC) [43]: -4.5247 | fold change (FC) [44]: -4.2262
